Data: ChEMBL document CHEMBL6083176, “Fluorescence theranostic PROTACs for real-time visualization of ERα degradation” (Eur J Med Chem, 2024)
Calls of active or inactive are those of the source. The calls are words filed in the database; no cut-off is given here. Peptide text beside a SMILES is read from it. * marks the point of attachment. Cbz = O=C(OCc1ccccc1)*

Key:
[1] = target: T1, Estrogen receptor (Homo sapiens) (UniProt P03372); assay: Binding affinity to ERalpha (unknown origin) assessed as relative binding affinity incubated for 2 hrs in presence of coumestrol by fluorescence polarization based competitive binding assay relative to estradiol
T1 sequence (whole entry): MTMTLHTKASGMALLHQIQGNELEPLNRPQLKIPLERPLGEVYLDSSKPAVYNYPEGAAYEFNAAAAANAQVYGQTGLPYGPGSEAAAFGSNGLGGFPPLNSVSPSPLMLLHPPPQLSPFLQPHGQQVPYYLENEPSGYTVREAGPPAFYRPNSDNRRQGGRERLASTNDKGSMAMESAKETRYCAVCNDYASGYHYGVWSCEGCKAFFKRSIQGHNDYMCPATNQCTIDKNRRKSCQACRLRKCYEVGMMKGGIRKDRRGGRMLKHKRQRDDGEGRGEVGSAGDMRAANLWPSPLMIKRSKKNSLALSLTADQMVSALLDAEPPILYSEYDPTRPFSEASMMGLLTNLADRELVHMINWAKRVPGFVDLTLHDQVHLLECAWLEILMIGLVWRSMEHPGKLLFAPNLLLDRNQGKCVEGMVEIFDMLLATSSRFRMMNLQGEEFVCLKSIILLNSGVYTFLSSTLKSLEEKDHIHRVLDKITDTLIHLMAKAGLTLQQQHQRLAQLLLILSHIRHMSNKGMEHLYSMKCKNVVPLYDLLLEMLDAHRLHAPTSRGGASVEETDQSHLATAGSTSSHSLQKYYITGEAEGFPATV

[2] = Drug uptake in human MCF7 cells assessed as increase in red fluorescence at 10 uM measured after 24 hrs by confocal laser scanning microscopic analysis; type: ADME, cell-based; conditions: mcf7, 24 h
[3] = Drug uptake in ER positive human MCF7 cells assessed as increase in red fluorescence at 10 uM incubated for 30 mins in glucose-depleted DMEM medium by confocal laser scanning microscopic analysis; type: ADME, cell-based; conditions: mcf7, 0.5 h
[4] = target: T2, von Hippel-Lindau disease tumor suppressor/Estrogen receptor (Homo sapiens, UniProt P03372+P40337); assay: PROTAC activity at VHL/ERalpha in human MCF7 cells assessed as induction of ERalpha degradation by measuring decrease in green fluorescence at 10 uM measured after 24 hrs by anti-ERalpha based immunofluorescence analysis; type: cell-based
Target sequence in this assay (P40337 whole entry, looked up, one chain of several): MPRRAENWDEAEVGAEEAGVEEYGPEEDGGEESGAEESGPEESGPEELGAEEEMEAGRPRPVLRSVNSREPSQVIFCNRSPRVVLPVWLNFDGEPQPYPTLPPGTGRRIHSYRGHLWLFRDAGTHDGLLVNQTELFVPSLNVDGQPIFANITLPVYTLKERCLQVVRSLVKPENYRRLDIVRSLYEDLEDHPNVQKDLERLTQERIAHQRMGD

[5] = Chemical reactivity of compound to methionine assessed as change in fluorescence response; type: physicochemical
[6] = Selectivity ratio of RBA for ERalpha (unknown origin) to RBA for ERbeta (unknown origin)
[7] = target: T2, von Hippel-Lindau disease tumor suppressor/Estrogen receptor; assay: PROTAC activity at VHL/ERalpha in human MCF7 cells assessed as induction of ERalpha degradation at 0.5 uM incubated for 24 hrs in presence of VHL ligand by Western blot analysis; type: cell-based
Target sequence in this assay (P40337 whole entry, looked up, one chain of several): as above

[8] = target: T2, von Hippel-Lindau disease tumor suppressor/Estrogen receptor; assay: PROTAC activity at VHL/ERalpha in human MCF7 cells assessed as induction of ERalpha degradation incubated for 24 hrs by Western blot analysis; type: cell-based
Target sequence in this assay (P40337 whole entry, one chain of several): as the sequence (P40337 whole entry, looked up, one chain of several) above

[9] = Photostability of the compound in DMSO/PBS solution assessed as decrease in fluorescence intensity at 466 nm excitation with Hamamatsu LC8 lightning cure (300 W) light for 2 hrs by fluorescence based analysis relative to initial value; type: physicochemical; design: dose or concentration left out as unconfirmed; conditions: read-out: Activity
[10] = Chemical reactivity of compound to […] assessed as change in fluorescence response; type: physicochemical
[11] = Chemical reactivity of compound to glycine assessed as change in fluorescence response; type: physicochemical
[12] = target: T2, von Hippel-Lindau disease tumor suppressor/Estrogen receptor; assay: PROTAC activity at VHL/ERalpha in human MCF7 cells assessed as induction of ERalpha degradation at 0.05 to 0.5 uM incubated for 24 hrs in presence of 4-OHT by Western blot analysis; type: cell-based; conditions: dose 0.05-0.5 µM
Target sequence in this assay (P40337 whole entry, looked up, one chain of several): as above

[13] = target: T2, von Hippel-Lindau disease tumor suppressor/Estrogen receptor; assay: PROTAC activity at VHL/ERalpha in human MCF7 cells assessed as induction of ERalpha degradation at 0.5 uM incubated for 24 hrs in presence of MG132 by Western blot analysis; type: cell-based
Target sequence in this assay (P40337 whole entry, looked up, one chain of several): as above

[14] = Chemical reactivity of compound to NaHCO3 assessed as change in fluorescence response; type: physicochemical
[15] = GSH reactivity of compound assessed as change in fluorescence response; type: physicochemical
[16] = Chemical reactivity of compound to NaNO2 assessed as change in fluorescence response; type: physicochemical
DU-145 = assay: Antiproliferative activity against human DU-145 cells assessed as reduction in cell viability incubated for 48 hrs by MTT assay; type: functional, cell-based; conditions: DU-145, 48 h
[17] = Chemical reactivity of compound to lysine assessed as change in fluorescence response; type: physicochemical
[18] = target: Estrogen receptor beta (Homo sapiens) (UniProt Q92731); assay: Binding affinity to ERbeta (unknown origin) assessed as relative binding affinity incubated for 2 hrs in presence of coumestrol by fluorescence polarization based competitive binding assay relative to estradiol
Sequence of Estrogen receptor beta (Homo sapiens) (Q92731 whole entry): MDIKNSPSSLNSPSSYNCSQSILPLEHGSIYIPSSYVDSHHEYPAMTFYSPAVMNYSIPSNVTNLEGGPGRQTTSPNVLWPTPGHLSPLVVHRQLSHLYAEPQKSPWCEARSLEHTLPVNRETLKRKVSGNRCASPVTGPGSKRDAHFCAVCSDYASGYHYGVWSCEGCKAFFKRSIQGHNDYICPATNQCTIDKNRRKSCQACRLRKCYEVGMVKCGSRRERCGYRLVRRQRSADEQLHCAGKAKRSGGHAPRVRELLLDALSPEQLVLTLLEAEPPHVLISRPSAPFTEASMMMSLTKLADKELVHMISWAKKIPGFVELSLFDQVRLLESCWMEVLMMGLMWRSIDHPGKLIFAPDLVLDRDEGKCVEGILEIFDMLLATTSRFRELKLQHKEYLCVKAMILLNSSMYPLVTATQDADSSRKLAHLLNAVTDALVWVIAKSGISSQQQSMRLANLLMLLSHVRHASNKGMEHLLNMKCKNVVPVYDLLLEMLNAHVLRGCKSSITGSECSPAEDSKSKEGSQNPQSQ

MCF7 [19] = assay: Antiproliferative activity against human MCF7 cells assessed as reduction in cell viability incubated for 48 hrs by MTT assay; type: functional, cell-based; conditions: MCF7, 48 h
[20] = Chemical reactivity of compound to KCl assessed as change in fluorescence response; type: physicochemical
[21] = Chemical reactivity of compound to CaCl2 assessed as change in fluorescence response; type: physicochemical
[22] = Chemical reactivity of compound to MgCl2 assessed as change in fluorescence response; type: physicochemical
[23] = target: T2, von Hippel-Lindau disease tumor suppressor/Estrogen receptor; assay: PROTAC activity at VHL/ERalpha in human MCF7 cells assessed as induction of ERalpha degradation at 5 uM by Western blot analysis; type: cell-based
Target sequence in this assay (P40337 whole entry, looked up, one chain of several): as the sequence (P40337 whole entry, looked up, one chain of several) above

[24] = Drug uptake in ER positive human MCF7 cells assessed as increase in red fluorescence at 10 uM incubated for 30 mins in glucose-depleted DMEM medium in presence of estradiol by confocal laser scanning microscopic analysis; type: ADME, cell-based; conditions: mcf7, 0.5 h
MCF7 [25] = assay: Effect on ERalpha expression in human MCF7 cells at 5 uM incubated for 24 hrs by Western blot analysis; type: functional, cell-based

Compound	RBA [1]	Selectivity ratio [6]	IC50 (DU-145)	RBA [18]	IC50 (MCF7 [19])	Activity [23]	other results
Cc1ncsc1-c1ccc([C@H](C)NC(=O)[C@@H]2C[C@@H](O)CN2C(=O)[C@@H](NC(=O)CCCCCCCCCOc2cc(O)ccc2/C=C/C2=CC(=C(C#N)C#N)c3cc(O)ccc3O2)C(C)(C)C)cc1	7.99%	2.03	> 100000 nM	3.94%	51 nM	Active	Drug uptake [2]: Active; Drug uptake [3]: Active; Activity [4]: Active; Nearly Complete Disappearance Of Fluorescence Observed; Activity [5]: Not_active; Activity [7]: inactive; DC50 [8]: 120 nM; degraded at 2 h [9]: < 5%; Activity [10]: Not_active; Activity [11]: Not_active; Activity [12]: inactive; Activity [13]: Not active; Mg132 Partly Blocked The Degradation; Activity [14]: Not_active; Drug metabolism [15]: metabolite_notdetected; Activity [16]: Not_active; Activity [17]: Not_active; Activity [20]: Not_active; Activity [21]: Not_active; Activity [22]: Not_active; Drug uptake [24]: Not_active
CC(C)C[C@@H](C=O)NC(=O)[C@H](CC(C)C)NC(=O)[C@H](CC(C)C)NC(=O)OCc1ccccc1 (Cbz-Leu-Leu-Leu-aldehyde)	–	–	–	–	–	–	Activity (MCF7 [25]): inactive
Cc1ncsc1-c1ccc([C@H](C)NC(=O)[C@@H]2C[C@@H](O)CN2C(=O)[C@@H](NC(=O)CCCCCCCOc2cc(O)ccc2/C=C/C2=CC(=C(C#N)C#N)c3cc(O)ccc3O2)C(C)(C)C)cc1	2.48%	3.79	> 100000 nM	0.65%	110 nM	Active	–
C[C@]12CC[C@@H]3c4ccc(O)cc4C[C@@H](CCCCCCCCC[S+]([O-])CCCC(F)(F)C(F)(F)F)[C@H]3[C@@H]1CC[C@@H]2O (stereo not given in full) [FULVESTRANT]	–	–	–	–	3 nM	–	–

Continued, in another order:

RBA [1]	Selectivity ratio [6]	IC50 (DU-145)	RBA [18]	IC50 (MCF7 [19])	Activity [23]	Compound	other results
3.69%	1.48	> 100000 nM	2.48%	> 100000 nM	Active	Cc1ncsc1-c1ccc([C@H](C)NC(=O)[C@@H]2C[C@@H](O)CN2C(=O)[C@@H](NC(=O)CCCCCOc2cc(O)ccc2/C=C/C2=CC(=C(C#N)C#N)c3cc(O)ccc3O2)C(C)(C)C)cc1	–
2.11%	1.51	> 100000 nM	1.4%	33500 nM	Active	Cc1ncsc1-c1ccc([C@H](C)NC(=O)[C@@H]2C[C@@H](O)CN2C(=O)[C@@H](NC(=O)CCCCCCCCCCCOc2cc(O)ccc2/C=C/C2=CC(=C(C#N)C#N)c3cc(O)ccc3O2)C(C)(C)C)cc1	–
